Source: article PMC7356157, “Shorter Antibacterial Peptide Having High Selectivity for E. coli Membranes and Low Potential for Inducing Resistance” (Microorganisms, 2020)
≈ marks a conversion by molar mass, not a printed value. Like-named read-outs stand apart in the source and are kept apart here. No end group written: not given here.

Tests used:
[1] = test system: E. coli clinical isolate 40; assay: Resistance profile of clinical isolate (VITEK-2); type: cell-based; details: Escherichia coli, isolate from blood
Excerpt: (§1) Approximately 50 bacterial samples were then collected from E. coli-infected patients for evaluating activity of the peptides against some clinical isolates. These samples were identified and biochemically and metabolically characterised using the VITEK-2 equipment. Isolates were profiled regarding their resistance or susceptibility to a panel of conventionally used antibiotics.

[2] = test system: E. coli clinical isolate 4; assay: Resistance profile of clinical isolate (VITEK-2); type: cell-based; details: Escherichia coli, isolate from urine
Excerpt: as §1

[3] = test system: E. coli clinical isolate 44; assay: Resistance profile of clinical isolate (VITEK-2); type: cell-based; details: Escherichia coli, isolate from blood
Excerpt: as §1

E. coli ATCC 25922 [4] = type: cell-based; details: for MIC E. coli 25922: broth microdilution, MHB, ~5 × 10^5 CFU/mL, 18 h, 37 °C, OD 620 nm, 100 to 0.2 µM
P. aeruginosa 27853 = assay: MIC by broth microdilution; type: cell-based; details: MHB, 18 h, 37 °C
[5] = test system: human red blood cells (hRBC); assay: Haemolytic activity (MHC); type: cell-based; details: 5% v/v hRBC in 1X PBS, 200–0.39 µM, 1 h, 37 °C, absorbance 560 nm
Description: A haemolytic activity assay was used for determining whether peptides acted on hRBC membrane by calculating the minimum haemolytic concentration (MHC). Briefly, 100 µL serial dilutions of peptides were incubated in a 96-well plate with an equal volume of a fresh hRBC suspension at 5% v/v in 1X PBS (200–0.39 µM final peptide concentrations). The samples were spun at 1000× g for 5 min after having been incubated at 37 °C for 1 h and a Multiskan spectrometer (Thermo Fisher) was used for measuring 100 µL supernatant absorbance at 560 nm. Treated hRBC absorbance 0.1% Triton X-100 or 100% haemolysis was used as positive control.

E. coli 35218 = type: cell-based
Description: (§2) Bactericidal activity was evaluated by sowing an aliquot of Luria Bertani agar (LBA) in the wells where no growth had been detected in the MIC assay.

E. coli ML35 43827 [6] = type: cell-based; details: broth microdilution
E. coli ATCC 25922 [7] = assay: Bactericidal activity (MBC); type: cell-based; details: aliquots of no-growth MIC wells on LBA, 18 h, 37 °C; kills 99.9%
Description: as §2

E. coli ML35 43827 [8] = assay: Bactericidal activity (MBC); type: cell-based
Description: as §2

E. coli [9] = test system: E. coli
Description: (§4) The checkerboard method was used for evaluating peptide antibacterial activity in combination with antibiotics [43]. […] Absorbance was measured at 620 nm and individual peptide and antibiotic MIC and combined MIC were obtained. […] The fractional inhibitory concentration index (FICI) was then calculated as the sum of peptide FIC + antibiotic FIC. A ≤ 0.5 FICI indicated synergy, 0.5 to ≤4 FICI indifference, and >4 FICI antagonism [45].
(§5) The results were interpreted by taking the lowest checkerboard FIC index (previously reported method 3) [44].

[10] = test system: E. coli 35218 (ampicillin-resistant ATCC 35218 strain); type: cell-based; details: broth microdilution
E. coli 25922 = assay: Antibacterial activity in the presence of human sera; type: cell-based
Description: The second assay involved peptide dilution in fresh human sera (100%) pre-incubated for 6 h at 37 °C in a humid chamber before putting them in contact with the bacterial inoculum diluted in MHB (~5 × 10^5 CFU/mL). The assay was incubated and read as mentioned in the microdilution section.

[11] = test system: E. coli N°44 (clinical isolate); details: clinical isolate from blood, ESBL (+), broth microdilution
Description: (§3) The standard broth microdilution method was used for determining the peptides’ MIC [41]. […] Bacteria in Müller–Hinton broth (MHB) were used as negative control. […] The MIC was determined as the lowest peptide concentration at which bacterial growth was not detected.
as §1

[12] = test system: E. coli N°4 (clinical isolate); details: clinical isolate from urine, broth microdilution
Description: as §3, §1

[13] = test system: E. coli N°40 (clinical isolate); details: clinical isolate from blood, broth microdilution
Description: as §3, §1

E. coli [14] = test system: E. coli; remark: listed apart in the source
Description: as §4, §5

E. coli ATCC 11775 = type: cell-based; details: broth microdilution
[15] = test system: E. coli N°44 (clinical isolate); type: cell-based
Description: as §2
Approximately 50 bacterial samples were then collected from E. coli-infected patients for evaluating activity of the peptides against some clinical isolates. These samples were identified and biochemically and metabolically characterised using the VITEK-2 equipment. Isolates were profiled regarding their resistance or susceptibility to a panel of conventionally used antibiotics. Three E. coli isolates having different resistance profiles were then selected following such characterisation (Appendix A): • Isolate 4 (from urine): extended spectrum beta-lactamase (ESBL) (-), resistant to ampicillin, quinolones and co-trimoxazole. • Isolate 40 (from blood): ESBL (-), resistant to ampicillin, 1st-generation cephalosporins and co-trimoxazole. • Isolate 44 (from blood): ESBL (+), resistant to aminoglycosides, quinolones, β-lactams (including 1st-, 3rd- and 4th-generation cephalosporins).

Compound | MIC [1] [µg/mL] | MIC [2] [µg/mL] | MIC [3] [µg/mL] | MIC E. coli 25922 (E. coli ATCC 25922 [4]) [µM] | MIC P. aeruginosa 27853 (P. aeruginosa 27853) [µM] | MHC (minimum haemolytic concentration) [5] [µM] | other results
CO[C@@]1(NC(=O)Cc2cccs2)C(=O)N2C(C(=O)O)=C(COC(N)=O)CS[C@@H]21 [Cefoxitin] | ≤ 4 | ≤ 4 | ≤ 4 | – | – | – | –
RYRRKKKMKKALQYIKL-NH2 [Peptide 35409-8] | – | – | – | >100 | >100 | >200 | –
KKKMKKALQYIKLLKE-NH2 [Peptide 35409-2] | – | – | – | 25 | >100 | >200 | MBC E. coli 35218 (E. coli 35218): 25 µM; MIC E. coli ML35 43827 (E. coli ML35 43827 [6]): 6 µM; MBC E. coli 25922 (E. coli ATCC 25922 [7]): 25 µM; MBC E. coli ML35 43827 (E. coli ML35 43827 [8]): 12.5 µM; FIC Index (E. coli [9]; peptide + gentamicin, lowest checkerboard FIC index (method 3)): 0.75; FIC P (peptide) (E. coli [9]; with gentamicin): 0.25; MIC against E. coli 25922, MHB (E. coli ATCC 25922 [4]; no serum): 25 µM; MIC E. coli 35218 [10]: 12.5 µM; MIC against E. coli 25922, Serum (without Pre-Incubation) (E. coli 25922; peptide diluted in fresh human sera (100%), then inoculum in MHB ~5 × 10^5 CFU/mL, 18 h, 37 °C): 25 µM; MIC E. coli N°44 [11]: 50 µM; MIC E. coli N°4 [12]: >100 µM; MIC E. coli N°40 [13]: 50 µM; FIC Index (E. coli [14]; peptide + ciprofloxacin, lowest checkerboard FIC index (method 3)): 3; FIC P (peptide) (E. coli [14]; with ciprofloxacin): 1; MIC E. coli 11775 (E. coli ATCC 11775): >100 µM; MBC E. coli N°44 [15]: > 100 µM
C[C@@H](O)[C@H]1C(=O)N2C(C(=O)O)=C(SCCN=CN)C[C@H]12 [Imipenem] | ≤ 1 | ≤ 1 | ≤ 1 | – | – | – | –
O=C1CN(/N=C/c2ccc([N+](=O)[O-])o2)C(=O)N1 [Nitrofurantoin] | ≤ 16 | ≤ 16 | ≤ 16 | – | – | – | –
RYRRKKKMKKA-NH2 [Peptide 35409-10] | – | – | – | >100 | >100 | >200 | –
CO/N=C(\C(=O)N[C@@H]1C(=O)N2C(C(=O)[O-])=C(C[N+]3(C)CCCC3)CS[C@H]12)c1csc(N)n1 [Cefepime] | – | ≤ 1 | – | – | – | – | –
RYRRKKKMKKALQY-NH2 [Peptide 35409-9] | – | – | – | >100 | >100 | >200 | –
ALQYIKLLKE-NH2 [Peptide 35409-6] | – | – | – | >100 | >100 | >200 | –
CC1(C)S[C@@H]2[C@H](NC(=O)[C@H](N)c3ccccc3)C(=O)N2[C@H]1C(=O)O [Ampicillin, ampicillin, reference compound] | ≥ 32 | ≥ 32 | ≥ 32 | – | – | – | MIC E. coli ML35 43827 (antibiotics) (E. coli ML35 43827 [6]): <0.016 µg/mL; MIC E. coli 35218 (antibiotics) [10]: >16 µg/mL; MIC E. coli 11775 (antibiotics) (E. coli ATCC 11775): <0.016 µg/mL
YIKLLKE-NH2 [Peptide 35409-7] | – | – | – | >100 | >100 | >200 | –
NCC[C@H](O)C(=O)N[C@@H]1C[C@H](N)[C@@H](O[C@H]2O[C@H](CN)[C@@H](O)[C@H](O)[C@H]2O)[C@H](O)[C@H]1O[C@H]1O[C@H](CO)[C@@H](O)[C@H](N)[C@H]1O [Amikacin] | ≤ 2 | ≤ 2 | 32 (≈ 54.6 µM) | – | – | – | –
RYRRKKK-NH2 [Peptide 35409-12] | – | – | – | >100 | >100 | >200 | –
MKKALQYIKLLKE-NH2 [Peptide 35409-5] | – | – | – | >100 | >100 | >200 | –
RYRRKKKMKK-NH2 [Peptide 35409-11] | – | – | – | >100 | >100 | >200 | –
CCn1cc(C(=O)O)c(=O)c2ccc(C)nc21 [Nalidixic acid] | ≤ 2 | ≥ 32 | ≥ 32 | – | – | – | –
CC(=O)OCC1=C(C(=O)O)N2C(=O)[C@@H](NC(=O)Cc3cccs3)[C@H]2SC1 [Cephalothin] | 16 (≈ 40.4 µM) | 4 (≈ 10.1 µM) | ≥ 64 | – | – | – | –
RKKKMKKALQY-NH2 [Peptide 35409-15] | – | – | – | >100 | >100 | 200 | –
KKMKKALQYIKLLKE-NH2 [Peptide 35409-3] | – | – | – | >100 | >100 | >200 | –
KMKKALQY-NH2 [Peptide 35409-16] | – | – | – | >100 | >100 | >200 | –
CO/N=C(\C(=O)N[C@@H]1C(=O)N2C(C(=O)O)=C(COC(C)=O)CS[C@H]12)c1csc(N)n1 [Cefotaxime] | ≤ 1 | ≤ 1 | ≥ 64 | – | – | – | –
KKMKKALQYIKL-NH2 [Peptide 35409-14] | – | – | – | >100 | >100 | 100 | –
CC(C)(O/N=C(\C(=O)N[C@@H]1C(=O)N2C(C(=O)[O-])=C(C[n+]3ccccc3)CS[C@H]12)c1csc(N)n1)C(=O)O [Ceftazidime] | ≤ 1 | ≤ 1 | ≥ 64 | – | – | – | –
C[C@@H](O)[C@H]1C(=O)N2C(C(=O)O)=C(S[C@@H]3CN[C@H](C(=O)N(C)C)C3)[C@H](C)[C@H]12 [Meropenem] | ≤ 0.25 | ≤ 0.25 | ≤ 0.25 | – | – | – | –
O=C(O)c1cn(C2CC2)c2cc(N3CCNCC3)c(F)cc2c1=O [Ciprofloxacin, ciprofloxacin, reference compound] | – | – | – | – | – | – | MIC (E. coli 25922; Escherichia coli, 25922, read-out: MIC against E. coli 25922, Serum (6 h Pre-Incubation) (ciprofloxacin), fresh human sera (100%), 6 h pre-incubation at 37 °C): 0.004 µg/mL
